US5252559A, “His-Gly-Gly peptide and derivatives thereof for hair growth” (The Procter & Gamble Company, priority 1991, dated 1993)
Peptide text beside a SMILES is read from it.

Test system: male C3H mice
Test: C3H Mouse Model, topical study of hair growth
Type: in vivo
Experimental: The effect of the compounds of the present invention on hair growth is assessed using male C3H mice (Harlan Sprague Dawley, Inc., Indianapolis, Ind.) as an animal model. The mice are 52 days old at the time of first does. They are individually housed in "shoe box" cages (Scientific Products, Chicago, Ill.). Ten mice are used per test group.
Not more than four hours before treatment, the animals are anesthetized with an intraperitoneal mixture of acepromazine maleate (1.6 mg/kg), xylazine (4.8 mg/kg) and ketamine hydrochloride (64 mg/kg) dosed in a saline vehicle in a total volume of 0.2 ml per 25 g mouse. The entire back of the animal is clipped closely with a small animal clipper (Wahl model 8900, Wahl Clipper Corp., Sterling, Ill.). […]
On days of photography, the animals are photographed prior to dosing. […] Results are expressed as the percent of shaved area responding with anagen skin, and the percent of shaved area responding with hair growth.
A positive response, i.e., an increase of greater than 10% over control, indicates the potential of the test compound to regulate hair growth. Accordingly, when hair growth peptides as herein defined, are assessed either individually or in combination as a test compound in the C3H Mouse Model, an increase over control of at least 10%, preferably 40%, more preferably 70%, after four weeks treatment will be obtained. […]

For N[C@@H](Cc1c[nH]cn1)C(=O)NCC(=O)NCC(=O)O [His-Gly-Gly, Histidyl-glycyl-glycine] (H-His-Gly-Gly-OH), the “mean percent of shaved area that is covered with hair at Day 25” value (topical, 1.0% in Tris buffer/propylene glycol/glycerine (67/30/3, pH 8.0) vehicle, after 4 weeks of treatment, mean of 10 mice) was 44.3% and the “increase in hair growth” value (versus vehicle control, Day 25, topical 1.0%) was 96%.
